Reference: the CheMixHub viscosity set

Test: xn = mol fraction of the nth substance listed

Cc1ccc(C)cc1 + CCCO
viscosity [mPa·s], 100 kPa
Settings | 298.15 K | 308.15 K
x2 = 0.0643 | 0.6146 | 0.5489
x2 = 0.1254 | 0.631 | 0.5619
x2 = 0.2254 | 0.6713 | 0.5956
x2 = 0.3547 | 0.7426 | 0.6389
x2 = 0.4703 | 0.8348 | 0.7071
x2 = 0.5743 | 0.9545 | 0.7925
x2 = 0.6683 | 1.058 | 0.9054
x2 = 0.7538 | 1.253 | 1.028
x2 = 0.8318 | 1.449 | 1.198
x2 = 0.9033 | 1.662 | 1.337
x2 = 0.9691 | 1.814 | 1.457

Cc1ccc(C)cc1 + CC(C)CC(C)(C)C
308.15 K, 101 kPa
Settings | viscosity [mPa·s]
x2 = 0.072 | 0.5266
x2 = 0.1401 | 0.5074
x2 = 0.2197 | 0.4893
x2 = 0.3074 | 0.4732
x2 = 0.4051 | 0.4595
x2 = 0.507 | 0.4479
x2 = 0.6185 | 0.44
x2 = 0.7382 | 0.4348
x2 = 0.8619 | 0.4333

CC(C)CCCC(C)CCCC(C)CCCCC(C)CCCC(C)CCCC(C)C (centres undefined) + CCCCCC
viscosity [mPa·s]
Settings | 293.15 K | 298.15 K | 313.15 K
100 kPa, x1 = 0.235 | 1.91 | – | 1.36
100 kPa, x1 = 0.511 | 7.76 | – | 4.15
100 kPa, x1 = 0.743 | 17.5 | – | 8.25
101 kPa, x1 = 0.129 | 0.972 | – | 0.739
101 kPa, x1 = 0.268 | 2.45 | – | 1.63
101 kPa, x1 = 0.469 | 6.3 | – | 3.62
101 kPa, x1 = 0.5661 | – | 10.15 | –
101 kPa, x1 = 0.762 | 18.3 | – | 8.84
101.33 kPa, x1 = 0.129 | 0.972 | – | 0.739
101.33 kPa, x1 = 0.268 | 2.45 | – | 1.63
101.33 kPa, x1 = 0.469 | 6.3 | – | 3.62
101.33 kPa, x1 = 0.762 | 18.3 | – | 8.84

CCCCCCCCCCCCO + C=CC(=O)OC
viscosity [mPa·s], 101.3 kPa
Settings | x2 = 0.1127 | x2 = 0.3078 | x2 = 0.3842 | x2 = 0.5147 | x2 = 0.6206 | x2 = 0.7884 | x2 = 0.8506 | x2 = 0.9093 | x2 = 0.9554 | x2 = 0.9794
298.15 K | 11.57 | 5.722 | 4.4 | 2.703 | 1.891 | 0.992 | 0.785 | 0.629 | 0.53 | 0.484
308.15 K | 8.309 | 4.391 | 3.385 | 2.157 | 1.515 | 0.833 | 0.668 | 0.549 | 0.473 | 0.438

CCCCCCCCN + c1ccccc1
303.15 K, 101 kPa
Settings | viscosity [mPa·s]
x2 = 0.1044 | 1.099
x2 = 0.3007 | 0.9459
x2 = 0.498 | 0.7915
x2 = 0.597 | 0.7318
x2 = 0.6967 | 0.6798
x2 = 0.7998 | 0.6239
x2 = 0.899 | 0.5891

O=Cc1ccccc1 + OCc1ccccc1
293.15 K, 100 kPa
Settings | viscosity [mPa·s]
x2 = 0.1032 | 1.695
x2 = 0.2 | 1.882
x2 = 0.3007 | 2.114
x2 = 0.4023 | 2.322
x2 = 0.4989 | 2.633
x2 = 0.6013 | 3.114
x2 = 0.688 | 3.591
x2 = 0.8 | 4.366
x2 = 0.8984 | 5.395

C[N+](C)(C)CCO.[Cl-] + O
Settings | viscosity [mPa·s]
298.15 K, 101.33 kPa, x1 = 0.002 | 0.9099

CCCCCCCCN + CCOCCO
308.15 K, 101 kPa
Settings | viscosity [mPa·s]
x2 = 0.1595 | 1.136
x2 = 0.4226 | 1.512
x2 = 0.5324 | 1.655
x2 = 0.6307 | 1.75
x2 = 0.7193 | 1.725
x2 = 0.7994 | 1.654
x2 = 0.8723 | 1.568
x2 = 0.9389 | 1.497

CCCCCCCCCCCCO + CCCCCCC
viscosity [mPa·s], 101.33 kPa
Settings | 298.15 K | 308.15 K
x1 = 0.0343 | 0.4411 | 0.3932
x1 = 0.0687 | 0.514 | 0.4523
x1 = 0.1389 | 0.7038 | 0.6054
x1 = 0.2173 | 0.9825 | 0.8279
x1 = 0.2965 | 1.372 | 1.126
x1 = 0.392 | 2.04 | 1.632
x1 = 0.4898 | 2.746 | 2.224
x1 = 0.5941 | 4.056 | 3.199
x1 = 0.7213 | 5.958 | 4.858
x1 = 0.7853 | 7.414 | 5.854
x1 = 0.8475 | 9.506 | 7.073
x1 = 0.9227 | 11.73 | 8.856

[Cl-].[Cl-].[Cl-].[Cl-].[Ge+4] + C1COCCO1
viscosity [mPa·s], 101 kPa
Settings | x2 = 0.1519 | x2 = 0.3148 | x2 = 0.5071 | x2 = 0.6631 | x2 = 0.8814 | x2 = 0.9218
298.15 K | 0.626 | 0.67 | 0.745 | 0.837 | 0.978 | 1.087
313.15 K | 0.539 | 0.57 | 0.627 | 0.687 | 0.784 | 0.856

Cc1ccc(S(=O)(=O)[O-])cc1.[Na+] + O
viscosity [mPa·s], 101 kPa
Settings | x1 = 9e-05 | x1 = 0.00018 | x1 = 0.0009 | x1 = 0.0018 | x1 = 0.00448 | x1 = 0.00893 | x1 = 0.0133 | x1 = 0.0177
298.15 K | 0.899 | 0.9 | 0.916 | 0.941 | 1.002 | 1.113 | 1.235 | 1.368
318.15 K | 0.598 | 0.599 | 0.609 | 0.626 | 0.661 | 0.728 | 0.799 | 0.879

O.O.O.O.O.O=S(=O)([O-])[S-].[Na+].[Na+] + N#C[S-].[K+]
101.33 kPa, x2 = 0.3
Settings | viscosity [mPa·s]
294 K | 39.21
298 K | 31.11
303 K | 24.56
308 K | 19.44
313 K | 15.6
318 K | 13.1
323 K | 10.89

Cc1ccc(C)cc1 + CCC(C)O
308.15 K, 101 kPa
Settings | viscosity [mPa·s]
x2 = 0.0429 | 0.553
x2 = 0.1028 | 0.562
x2 = 0.2013 | 0.591
x2 = 0.3192 | 0.645
x2 = 0.4044 | 0.721
x2 = 0.5085 | 0.792
x2 = 0.6631 | 0.932
x2 = 0.7494 | 1.111
x2 = 0.8285 | 1.32
x2 = 0.9012 | 1.61
x2 = 0.9684 | 1.782

O=Cc1ccccc1 + CS(C)=O
viscosity [mPa·s], 101.33 kPa
Settings | x2 = 0.1 | x2 = 0.2 | x2 = 0.3 | x2 = 0.4 | x2 = 0.5 | x2 = 0.6 | x2 = 0.7 | x2 = 0.8 | x2 = 0.9
298.15 K | 1.443 | 1.51 | 1.562 | 1.62 | 1.679 | 1.739 | 1.801 | 1.864 | 1.938
308.15 K | 1.22 | 1.266 | 1.314 | 1.362 | 1.411 | 1.461 | 1.51 | 1.56 | 1.609
318.15 K | 1.066 | 1.101 | 1.135 | 1.17 | 1.207 | 1.243 | 1.28 | 1.317 | 1.354

O=Cc1ccccc1 + Cc1ccccc1
293.15 K, 100 kPa
Settings | viscosity [mPa·s]
x1 = 0.1053 | 0.652
x1 = 0.2063 | 0.721
x1 = 0.2998 | 0.768
x1 = 0.4022 | 0.844
x1 = 0.4995 | 0.92
x1 = 0.6003 | 1.017
x1 = 0.6939 | 1.108
x1 = 0.8082 | 1.256
x1 = 0.9002 | 1.367

[Cl-].[Cl-].[Cl-].[Cl-].[Ge+4] + CCOCC
293.15 K, 101 kPa
Settings | viscosity [mPa·s]
x2 = 0.2064 | 0.5
x2 = 0.4027 | 0.415
x2 = 0.5137 | 0.376
x2 = 0.6832 | 0.309
x2 = 0.7964 | 0.279

[Br-].[Br-].[Br-].[Br-].[Sn+4] + Oc1ccccc1
313.15 K, 101 kPa
Settings | viscosity [mPa·s]
x1 = 0.1 | 4.21
x1 = 0.2 | 3.817
x1 = 0.3 | 3.351
x1 = 0.4 | 3.034
x1 = 0.5 | 2.762
x1 = 0.6 | 2.56
x1 = 0.7 | 2.387
x1 = 0.8 | 2.262
x1 = 0.9 | 2.137
